Source: a melting point compilation (Tetko et al.; mined from patent text by program, amines drawn as free bases though some values may be those of a salt)

| SMILES | melting point [°C] |
| --- | --- |
| CCC(=O)N[C@@H](C)C(=O)N1CCC[C@H]1C(=O)NC1CCCCCCC1 | 142 to 143 |
| CN(CCOc1ccc(CCCC2OC(=O)NC2=O)cc1)c1ccccn1 (stereo not drawn) | 126 to 127 |
| CCNC(=O)Nc1c(C(O)(C(F)(F)F)C(F)(F)F)ccc2c1CCC2 | 142 to 143 |
| O=C(NC[C@H]1O[C@@H]1c1ccccc1)C(F)(F)F (racemic) | 79 |
| O=C(O)C1=Cc2cc(Cl)c(Oc3ccc([N+](=O)[O-])cc3)cc2OC1C(F)(F)F (stereo not drawn) | 246 to 248 |
| CN1c2cccc(CC(=O)O)c2Sc2c(C(N)C(=O)OCC3c4ccccc4-c4ccccc43)cccc21 (stereo not drawn) | 217 to 219 |
| CC(C)(C)[C@H]1CC[C@@H](Nc2nnc(Cc3ccncc3)c3ccccc23)CC1 | 64 to 65 |
| CC(=O)OCC(=O)C1C(C)CC2C3CC(Cl)C4=CC(=O)C=CC4(C)C3=CCC21C (stereo not drawn) | 181 |
| CCCC1C(=O)N(S(=O)(=O)c2ccc3ccccc3c2)C2CCN(C(=O)CN3CCCCC3)C12 (stereo not drawn) | 161 to 163 |
| O=C(O)Cc1ccc(OCCC(c2ccccc2)(c2ccccc2)c2ccccc2)cc1 | 148 to 149 |
| COc1cc2c3c(c(=O)n(C)c2cc1OC)CNCC3 | 178 to 179 |
| CCOC(=O)CC(c1ccc(OC)cc1)N1C(=O)c2ccccc2C1=O (stereo not drawn) | 32 |
| CC(=O)OCC1OC(n2cc(C3=C(c4c[nH]c5ncccc45)C(=O)N(COCc4ccccc4)C3=O)c3cccnc32)C(OC(C)=O)C(OC(C)=O)C1OC(C)=O (stereo not drawn) | 127 to 129 |
| Cn1nnnc1SCCCC(=O)c1ccc2ccccc2c1 | 118 to 120 |
| O=C(O)c1cc2cc(Cl)c(Cl)cc2nc1N[C@H](Cc1c[nH]c2ccccc12)C(=O)O | > 250 |
| O=S(=O)(c1ccccc1)N1CCC(C(O)(c2ccc(F)cc2)C2CCCCC2)CC1 (stereo not drawn) | 106 to 109 |
| CCCCCC(O)CNCCCCCCNCC(O)CCCCC (stereo not drawn) | 131 to 134 |
| CCOC(=O)CCNC(=O)c1cn2nc(Cl)ccc2n1 | 132 to 134 |
| O=C(C1CC1)N1CCCC1Cc1ccc(Cl)cc1 (stereo not drawn) | 62 to 64 |
| CCCCCCCCOc1ccc2c(c1CCC)OC(CCC(=O)O)(CCC(=O)O)CC2=O | 148 |
| C=CCc1cc(COC(=O)C(C)(C)C)ccc1C#CC1(O)CN2CCC1CC2 (stereo not drawn) | 73 |
| Cc1c(C(=O)N[C@@H]2CN3CCC2CC3)c2ccccc2n1C | 176 to 177 |
| N#Cc1c(N2CCN(C(=O)C3CCCS3)CC2)c2ccccc2n(Cc2ccc(F)cc2)c1=O (stereo not drawn) | 133 to 140 |
| NS(=O)(=O)c1cc(C(=O)c2csc3ccccc23)ccc1Cl | 154 to 156 |
| COC(=O)c1sc2ccccc2c1OCC(C)=O | 57 to 58 |

| SMILES | melting point [°C] |
| --- | --- |
| Cn1c(Cl)c(C(=O)O)c2ccc(Cl)cc21 | 243 to 245 |
| COc1ccc(COc2cccc(-c3cnc4[nH]cc(C(=O)C(C)(C)C)c4n3)c2)cc1 | > 300 |
| C=C=Cn1c(=O)sc2cc(F)c(-n3c(=O)cc(C)n(C)c3=O)cc21 | > 250 |
| CCCCCCCCCCCCNC(=O)Oc1ccc2oc3ccccc3c2c1 | 112 to 114 |
| Cn1c(=O)[nH]c2ccc(-c3cccc([N+](=O)[O-])c3)cc21 | 264 to 265 |
| [N-]=[N+]=CC(=O)C(Cc1ccc(F)cc1)NC(=O)OCc1ccccc1 (racemic) | 97 |
| Oc1ccnc2ccc3nc[nH]c3c12 | 366 to 368 |
| CCOc1ccnc(CSc2nc3ccc(C(F)(F)F)cc3[nH]2)c1C | 173 to 177 |
| CCN(c1cccc(-c2ccnc3c([N+](=O)[O-])cnn23)c1)S(=O)(=O)c1ccccc1 | 189 to 191 |
| O=C(O)c1cccnc1Oc1ccc(-c2nnn[nH]2)cc1 | 225 to 230 |
| CCCCCCCNC(=O)Nc1ccccc1C(=O)NC1CCN(C(c2ccccc2)c2ccccc2)CC1 | 182 |
| N#Cc1nn(-c2c(Cl)cc(C(F)(F)F)cc2Cl)c(Cl)c1C=C(Br)Br | 119 to 120 |
| COc1ccc(-c2cc(C(=O)Nc3cccc(F)n3)c3ccccc3n2)cc1OC | 225 to 226 |
| CCc1c(C(C)C)cc(C(C)C)c(CO)c1-c1ccc(F)cc1 | 106 to 108 |
| CNc1nc(NC)c2ncn(COC(COC(=O)C(C)C)COC(=O)C(C)C)c2n1 | 122 to 123 |
| CCNc1cccc2c1OC1(CC1)C2=O | 80.6 |
| COCCc1nc2c(N)nc3ccccc3c2n1CCCCNC(=O)c1nccc2ccccc12 | 61 to 63 |
| CC(C)(c1ccc(Oc2ccc(N=C=O)cc2)cc1)c1ccc(Oc2ccc(N=C=O)cc2)cc1 | 68 to 69 |
| CCCCN(CCCC)c1ccc(C=Cc2ccc(C=CC3=C(C#N)C(=C(C#N)C#N)OC3(c3ccccc3)C(F)(F)F)cc2)c(OC)c1 (stereo not drawn) | 176 to 178 |
| C#CC1(O)CCC2(C)C(CCC3C2CCC2(C)C(C(=O)CSCCO)CCC32)C1 (stereo not drawn) | 122 to 126 |
| CONC(=N)c1ccc(-c2ccc(-c3ccc(-c4ccc(C(=N)NOC)cc4)o3)o2)cc1 | 258 to 259 |
| COC(=O)C(OC)(c1ccccc1)c1nc(OC)cc(OC)n1 (stereo not drawn) | 72 to 76 |
| OC1CSC(=S)N1c1ccccn1 (stereo not drawn) | 110 |
| CC[C@@]12C[C@H](O)[C@](O)(c3ccccc3)C[C@H]1CCc1cc(O)ccc12 | 191 to 192 |
| O=C(OC1CCCCC1)C(c1ccccc1)n1cnc2[nH]ncc2c1=O (stereo not drawn) | 176 to 180 |

| SMILES | melting point [°C] |
| --- | --- |
| CN(CCOC[C@@H]1CC(c2ccc(-c3ccc(N4C[C@H](Cn5ccnn5)OC4=O)cc3F)cn2)=NO1)CC(=O)O | 135 to 140 |
| Cc1ccc(C2(CNC(=O)Nc3c(C(C)C)cccc3C(C)C)CCC2)cc1 | 166 to 168 |
| COc1ccc2c(=O)c(-c3nnnn3C)cn(C)c2c1 | 270 to 273 |
| COc1ccc2[nH]c(C)c(/C=C/C(=O)c3cccnc3)c2c1 | 193 to 195 |
| CCn1ncc(OCc2ccc(C3CCCCC3)cc2)c(Cl)c1=O | 168 to 170 |
| N#Cc1cc([N+](=O)[O-])c(O)c(O)c1F | 154 |
| COCCOc1ccc(/C=C(\C)C(=O)O)c(Oc2ncc(C(F)(F)F)cc2Cl)c1 | 122 |
| CCCc1nc2c(N)nc(C)c(C)c2n1CC(C)(C)NS(C)(=O)=O | 85 to 93 |
| O=C(O)c1ccc2[nH]c(C(=O)O)cc2c1 | 314 to 315 |
| CN1CCCC1=Cc1ccc([N+](=O)[O-])cc1[N+](=O)[O-] | 188 to 190 |
| CC(C)(C)SC(=S)c1cc(C(C)(C)C)c(O)c(C(C)(C)C)c1 | 128 to 130 |
| CC(C)N(C(C)C)S(=O)(=O)N[C@@H](Cc1ccc(Nc2nccc3cnccc23)cc1)C(=O)O | 168 |
| CC(C)(C)OC(=O)Nc1ncccc1Br | 120 to 121 |
| Cc1nc(N2CCN(Cc3ccc(F)cc3)C2=O)sc1C#N | 136 to 139 |
| COc1cccc2c1OC(C(=O)Nc1ccncc1)C2CC(=O)OCc1ccccc1 (stereo not drawn) | 165 to 166 |
| CCC(C=O)c1ccc(S(=O)(=O)NC)cc1 (stereo not drawn) | 202 to 204 |
| N#Cc1cc(C(=O)CC(O)(c2cc(Cl)cc(Cl)c2)C(F)(F)F)ccc1F (stereo not drawn) | 146 to 147 |
| Oc1cc(O)nc(-c2ccc(Cl)cc2)n1 | 333 |
| Cc1ccccc1C(Oc1cc(OCc2ccc3ncoc3c2)ccc1C#N)C(=O)O (racemic) | 172 to 178 |
| O=c1c2ccccc2[nH]n1-c1ccccc1F | 156 to 159 |
| CCOC(=O)c1sc(OCC)c2c1CCc1cnn(C)c1-2 | 109 to 110 |
| CCOc1cc(OC(C)C)ccc1-c1nc(-c2ccc(OC(C)C)cc2O)nc(-c2ccc(OC(C)C)cc2O)n1 | 163 to 167 |
| COC(=O)C(C)c1ccc2c(c1)C(=O)Cc1cccnc1S2 (stereo not drawn) | 98 to 99.5 |
| CCOCc1nc2c(N)nc3ccccc3c2n1CCOCc1ccccc1 | 144 to 146 |
| CC[C@H](C)OC(=O)COc1ccc(C(=O)[C@H](COC(C)(C)C)NC(=O)c2ccc(C(=N)NC(=O)OC(C)(C)C)cc2)cc1 | 85 to 87 |

| SMILES | melting point [°C] |
| --- | --- |
| CC(=O)c1c(C)c(NC(=O)CC(C)(C)C)c(C)c2c1S(=O)(=O)CC2c1ccc(C(C)C)cc1 (stereo not drawn) | 184 to 186 |
| CC(=O)Oc1c(C)cc(C2C(=O)Oc3c2cc(C(C)(C)C)cc3C(C)(C)C)cc1C (stereo not drawn) | 165 to 166 |
| CC(C)(O)c1ccc(CNC(=O)c2cccnc2Oc2cc(F)cc(F)c2)cc1 | 68 to 70 |
| COc1cc2c(cc1O)CCN(Cc1cccc(O)c1)C2 | 177 to 178 |
| CC(C)OCc1cc(O)cc2cc(-c3ccc(O)cc3)oc12 | 195 to 197 |
| O=C(O)CCc1ccc(OCc2nc(-c3ccccc3)c(-c3ccccc3)o2)cc1 | 124 to 127 |
| Cc1cc(-c2ccc(Cl)cc2)nc(-c2cccc(-c3ccc(S(N)(=O)=O)s3)c2)n1 | 227 |
| COC(=O)c1cccc(-c2ncc(N=CN(C)C)cn2)c1 | 146 |
| COc1ccc2c(c1)c(=O)c(CSC)cn2C | 122 to 123 |
| COc1ccc2c(c1)c1c3c(ccc1n2C)C(=O)N(CCN(C)C)C3=O | 137 to 138 |
| O=C=NC(=O)CS(=O)(=O)c1ccc(Cl)cc1 | 58 to 60 |
| Nc1cccc(-c2cc3ccccc3[nH]2)c1 | 166 |
| CCOC(=O)C(C#N)=C(c1ccc(F)cc1)c1ccc(F)cc1 | 114 to 116 |
| COCC1CN(C(=O)c2cc(OC)c(OC)c(OC)c2)CCN1C(=O)OC(C)(C)C (stereo not drawn) | 127 |
| O=C(Nc1c[nH]nc1C(=O)NCCCOc1ccccc1)c1ccccn1 | 182 to 184 |
| COc1ccc(Cn2cnc3c(-c4ccco4)nc(C#N)nc32)cc1 | 205 to 207 |
| OC(CNC1=NCCN1)c1ccc(F)cc1 (stereo not drawn) | 153 |
| Nc1nc(C(F)(F)F)c(CN2C(=O)C3(COc4cc5c(cc43)OCO5)c3ccccc32)s1 (stereo not drawn) | 165 to 167 |
| CCCCCCCCCCCCCCCCSCC(CNS(=O)(=O)CCCCl)OC(=O)NC (stereo not drawn) | 84.5 to 85.5 |
| CC(=O)OC1C(C)OC(OC(=N)C(Cl)(Cl)Cl)C(OC(C)=O)C1OC(C)=O (stereo not drawn) | 60 to 63 |
| CCCCOC(=O)NC(=O)C1c2ccccc2Oc2ccccc21 | 180 to 183 |
| CCCCOCc1cnc2nc(N)[nH]c(=O)c2n1 | > 300 |
| CC(C)CC(=O)Nc1cncc(-c2ccnc3c(C(=O)c4cccs4)cnn23)c1 | 217 to 219 |
